Measured values published in the supplement of paper PMC11451515.

Tested on: SEM cells
Experiment: cell viability relative to DMSO control; higher = less cytotoxic
Conditions: 48 h
In short: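 NOMO1 or SEM (500 cells/well) or P12-Ichikawa (1000 cells/well) leukemia cells were adapted for at least four passages in each medium. They were seeded in 1536-well plates (5 μl) and pin-dosed with library compounds in DMSO over an 11-point threefold series, 47 μM to 0.79 nM. CellTiter-Glo One luminescence was read after 48 h at 37°C. Viability is the per-plate percentage relative to DMSO wells, with cell-free wells as background.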

[1] = HPLM + 10% dialyzed FBS, 0.000781 µM
[2] = HPLM + 10% dialyzed FBS, 0.00234 µM
[3] = HPLM + 10% dialyzed FBS, 0.00702 µM
[4] = HPLM + 10% dialyzed FBS, 0.0211 µM
[5] = HPLM + 10% dialyzed FBS, 0.0632 µM
[6] = HPLM + 10% dialyzed FBS, 0.19 µM
[7] = HPLM + 10% dialyzed FBS, 0.569 µM
[8] = HPLM + 10% dialyzed FBS, 1.71 µM
[9] = HPLM + 10% dialyzed FBS, 5.12 µM
[10] = HPLM + 10% dialyzed FBS, 15.4 µM
[11] = HPLM + 10% dialyzed FBS, 46.1 µM
[12] = RPMI 5 mM glucose + 10% FBS, 0.000781 µM
[13] = RPMI 5 mM glucose + 10% FBS, 0.00234 µM
[14] = RPMI 5 mM glucose + 10% FBS, 0.00702 µM
[15] = RPMI 5 mM glucose + 10% FBS, 0.0211 µM
[16] = RPMI 5 mM glucose + 10% FBS, 0.0632 µM
[17] = RPMI 5 mM glucose + 10% FBS, 0.19 µM
[18] = RPMI 5 mM glucose + 10% FBS, 0.569 µM
[19] = RPMI 5 mM glucose + 10% FBS, 1.71 µM
[20] = RPMI 5 mM glucose + 10% FBS, 5.12 µM
[21] = RPMI 5 mM glucose + 10% FBS, 15.4 µM
[22] = RPMI 5 mM glucose + 10% FBS, 46.1 µM
[23] = RPMI 5 mM glucose + 10% dialyzed FBS, 0.000781 µM
[24] = RPMI 5 mM glucose + 10% dialyzed FBS, 0.00234 µM
[25] = RPMI 5 mM glucose + 10% dialyzed FBS, 0.00702 µM
[26] = RPMI 5 mM glucose + 10% dialyzed FBS, 0.0211 µM
[27] = RPMI 5 mM glucose + 10% dialyzed FBS, 0.0632 µM
[28] = RPMI 5 mM glucose + 10% dialyzed FBS, 0.19 µM
[29] = RPMI 5 mM glucose + 10% dialyzed FBS, 0.569 µM
[30] = RPMI 5 mM glucose + 10% dialyzed FBS, 1.71 µM
[31] = RPMI 5 mM glucose + 10% dialyzed FBS, 5.12 µM
[32] = RPMI 5 mM glucose + 10% dialyzed FBS, 15.4 µM
[33] = RPMI 5 mM glucose + 10% dialyzed FBS, 46.1 µM

## CC(=O)OCC(CCn1cnc2cnc(N)nc21)COC(C)=O
[1]
  cell viability: 83.4%
[2]
  cell viability: 65.5%
[3]
  cell viability: 93.6%
[4]
  cell viability: 84.8%
[5]
  cell viability: 97.3%
[6]
  cell viability: 101%
[7]
  cell viability: 105%
[8]
  cell viability: 101%
[9]
  cell viability: 97.7%
[10]
  cell viability: 109%
[11]
  cell viability: 90.8%
[12]
  cell viability: 85.9%
[13]
  cell viability: 71.3%
[14]
  cell viability: 69.2%
[15]
  cell viability: 97.5%
[16]
  cell viability: 88.1%
[17]
  cell viability: 98.3%
[18]
  cell viability: 98.2%
[19]
  cell viability: 103%
[20]
  cell viability: 97.4%
[21]
  cell viability: 103%
[22]
  cell viability: 109%
[23]
  cell viability: 79.3%
[24]
  cell viability: 79.8%
[25]
  cell viability: 74.9%
[26]
  cell viability: 81.2%
[27]
  cell viability: 96%
[28]
  cell viability: 95.5%
[29]
  cell viability: 103%
[30]
  cell viability: 97%
[31]
  cell viability: 110%
[32]
  cell viability: 97.9%
[33]
  cell viability: 95.6%

## O=C(N[C@H]1CN2CCC1CC2)c1ccc(Cl)cc1
[1]
  cell viability: 89.3%
[2]
  cell viability: 96.5%
[3]
  cell viability: 95.5%
[4]
  cell viability: 99.8%
[5]
  cell viability: 98.7%
[6]
  cell viability: 87.4%
[7]
  cell viability: 96.3%
[8]
  cell viability: 105%
[9]
  cell viability: 102%
[10]
  cell viability: 98.5%
[11]
  cell viability: 84.4%
[12]
  cell viability: 84%
[13]
  cell viability: 92.2%
[14]
  cell viability: 99.5%
[15]
  cell viability: 87.8%
[16]
  cell viability: 96.1%
[17]
  cell viability: 95.9%
[18]
  cell viability: 101%
[19]
  cell viability: 99.5%
[20]
  cell viability: 93.3%
[21]
  cell viability: 88.6%
[22]
  cell viability: 60.2%
[23]
  cell viability: 93.2%
[24]
  cell viability: 98.9%
[25]
  cell viability: 94.8%
[26]
  cell viability: 94.3%
[27]
  cell viability: 104%
[28]
  cell viability: 116%
[29]
  cell viability: 96.1%
[30]
  cell viability: 93.2%
[31]
  cell viability: 94.1%
[32]
  cell viability: 107%
[33]
  cell viability: 76.1%

## CCN(CCO)CCCC(C)Nc1ccnc2cc(Cl)ccc12 (stereo unspecified)
[1]
  cell viability: 102%
[2]
  cell viability: 93.8%
[3]
  cell viability: 114%
[4]
  cell viability: 76.2%
[5]
  cell viability: 105%
[6]
  cell viability: 118%
[7]
  cell viability: 5.95%
[8]
  cell viability: 95%
[9]
  cell viability: 106%
[10]
  cell viability: 62.6%
[11]
  cell viability: 49.9%
[12]
  cell viability: 105%
[13]
  cell viability: 102%
[14]
  cell viability: 117%
[15]
  cell viability: 93%
[16]
  cell viability: 102%
[17]
  cell viability: 108%
[18]
  cell viability: 6.8%
[19]
  cell viability: 78.2%
[20]
  cell viability: 104%
[21]
  cell viability: 64.8%
[22]
  cell viability: 42.5%
[23]
  cell viability: 98.4%
[24]
  cell viability: 80.5%
[25]
  cell viability: 104%
[26]
  cell viability: 82.5%
[27]
  cell viability: 107%
[28]
  cell viability: 99.6%
[29]
  cell viability: 5.67%
[30]
  cell viability: 66%
[31]
  cell viability: 100%
[32]
  cell viability: 52.1%
[33]
  cell viability: 37.2%

## Cc1ccc(Nc2nccc(N(C)c3ccc4c(C)n(C)nc4c3)n2)cc1[S+](N)(=O)[O-]
[1]
  cell viability: 83.9%
[2]
  cell viability: 89%
[3]
  cell viability: 88%
[4]
  cell viability: 105%
[5]
  cell viability: 98.2%
[6]
  cell viability: 91.7%
[7]
  cell viability: 91.3%
[8]
  cell viability: 91%
[9]
  cell viability: 75.3%
[10]
  cell viability: 61.3%
[11]
  cell viability: 18.1%
[12]
  cell viability: 87.2%
[13]
  cell viability: 92.9%
[14]
  cell viability: 95.7%
[15]
  cell viability: 109%
[16]
  cell viability: 86.3%
[17]
  cell viability: 91.6%
[18]
  cell viability: 77.5%
[19]
  cell viability: 79.6%
[20]
  cell viability: 63%
[21]
  cell viability: 38.9%
[22]
  cell viability: 7.79%
[23]
  cell viability: 95.9%
[24]
  cell viability: 83%
[25]
  cell viability: 99.7%
[26]
  cell viability: 105%
[27]
  cell viability: 92.3%
[28]
  cell viability: 101%
[29]
  cell viability: 90.2%
[30]
  cell viability: 81.8%
[31]
  cell viability: 57.5%
[32]
  cell viability: 49.2%
[33]
  cell viability: 14.8%

## CON(C)C(=O)N1\N=C(/S[C@]1(CCCN)C2=CC=CC=C2)C3=CC(=CC=C3F)F
[1]
  cell viability: 23.7%
[2]
  cell viability: 22.9%
[3]
  cell viability: 24.5%
[4]
  cell viability: 28.8%
[5]
  cell viability: 26.4%
[6]
  cell viability: 27.4%
[7]
  cell viability: 30.7%
[8]
  cell viability: 27%
[9]
  cell viability: 29.9%
[10]
  cell viability: 31.7%
[11]
  cell viability: 24.8%
[12]
  cell viability: 20.8%
[13]
  cell viability: 20.4%
[14]
  cell viability: 20.1%
[15]
  cell viability: 22.6%
[16]
  cell viability: 22.8%
[17]
  cell viability: 21.5%
[18]
  cell viability: 25.6%
[19]
  cell viability: 18.8%
[20]
  cell viability: 21.3%
[21]
  cell viability: 20.4%
[22]
  cell viability: 23.8%
[23]
  cell viability: 21.2%
[24]
  cell viability: 21.1%
[25]
  cell viability: 19.9%
[26]
  cell viability: 21%
[27]
  cell viability: 21.3%
[28]
  cell viability: 23.2%
[29]
  cell viability: 23.2%
[30]
  cell viability: 24.6%
[31]
  cell viability: 23.9%
[32]
  cell viability: 20.6%
[33]
  cell viability: 21.6%

## CCN(CC)CCNC(=O)c1ccc2nc(-c3ccccc3)c(-c3ccc(CN4CCC(n5c(=O)[nH]c6ccccc65)CC4)cc3)nc2c1
[1]
  cell viability: 108%
[2]
  cell viability: 116%
[3]
  cell viability: 120%
[4]
  cell viability: 103%
[5]
  cell viability: 83.8%
[6]
  cell viability: 54%
[7]
  cell viability: 36.8%
[8]
  cell viability: 26.7%
[9]
  cell viability: 4.83%
[10]
  cell viability: 4.21%
[11]
  cell viability: 3.45%
[12]
  cell viability: 108%
[13]
  cell viability: 106%
[14]
  cell viability: 124%
[15]
  cell viability: 83.8%
[16]
  cell viability: 56.4%
[17]
  cell viability: 34.4%
[18]
  cell viability: 32.9%
[19]
  cell viability: 28.9%
[20]
  cell viability: 11%
[21]
  cell viability: 7.63%
[22]
  cell viability: 3.28%
[23]
  cell viability: 117%
[24]
  cell viability: 112%
[25]
  cell viability: 127%
[26]
  cell viability: 92.2%
[27]
  cell viability: 75.7%
[28]
  cell viability: 56.5%
[29]
  cell viability: 45.8%
[30]
  cell viability: 32.6%
[31]
  cell viability: 13.6%
[32]
  cell viability: 5.86%
[33]
  cell viability: 3.2%

## COc1ccc(-c2cc3c(C)nc(N)nc3n([C@H]3CC[C@H](OCCO)CC3)c2=O)cn1
[1]
  cell viability: 99.4%
[2]
  cell viability: 91.8%
[3]
  cell viability: 84.6%
[4]
  cell viability: 77.2%
[5]
  cell viability: 70.5%
[6]
  cell viability: 64.9%
[7]
  cell viability: 47%
[8]
  cell viability: 32.6%
[9]
  cell viability: 24.3%
[10]
  cell viability: 6.37%
[11]
  cell viability: 1%
[12]
  cell viability: 105%
[13]
  cell viability: 105%
[14]
  cell viability: 97.8%
[15]
  cell viability: 99.8%
[16]
  cell viability: 79.8%
[17]
  cell viability: 62.1%
[18]
  cell viability: 55.3%
[19]
  cell viability: 29.1%
[20]
  cell viability: 29.6%
[21]
  cell viability: 9.56%
[22]
  cell viability: 1.08%
[23]
  cell viability: 79.7%
[24]
  cell viability: 86.1%
[25]
  cell viability: 75.4%
[26]
  cell viability: 75.3%
[27]
  cell viability: 69.7%
[28]
  cell viability: 58.9%
[29]
  cell viability: 46.4%
[30]
  cell viability: 34.7%
[31]
  cell viability: 29.3%
[32]
  cell viability: 14.6%
[33]
  cell viability: 1.67%
